Patent US20030194373A1, “Angiogenesis targeting molecules” (priority 1998, published 2003)
Blank lines part the entries; values can stand above or below the molecule they belong to.

Tests used:
αvβ3 receptor = target: T1, αvβ3 receptor (Homo sapiens, UniProt P05106+P06756); test: Cell adhesion assay with HUVECs and vitronectin; type: cell-based; details: HUVECs, FIG. 5
T1 construct: The HUVECs are known to express KDR, Flt-1 and αvβ3 receptors; host or cells: HUVEC
Description: HUVECs (BioWhittaker) were cultured on gelatin-coated plates in MCDB 131 media supplemented with 15% fetal bovine serum (FBS), 4 ng/ml basic fibroblast growth factor, 10 ng/ml epidermal growth factor, and 10 U/ml heparin; cells were used in experiments at passages 2-10. The HUVECs are known to express KDR, Flt-1 and αvβ3 receptors.
HUVECs were harvested using 15 mM EDTA pH8.0, washed 3 times, and resuspended in serum-free media. 4×10^4 cells were preincubated either alone (control) or with test compound for 15 minutes at 37° C., then incubated in 96 well plates coated with known integrin ligand—eg. 5 μg/ml vitronectin (Sigma Aldrich Canada, Oakville, ON) coated 3 hours., 37° C., or RGD-ECM precoated plates (Chemicon International, Temecula, Calif.)—and blocked with 1% bovine serum albumin (BSA). Cells were allowed to adhere for 1-2 hours at 37° C. Unbound cells were removed by washing with phosphate-buffered saline (PBS) and the remaining adherent cells were fixed with 2% paraformaldehyde (30 minutes, room temperature). Adhesion was quantitated by cell staining with crystal violet followed by dye extraction with 10% acetic acid. The absorbance was measured at 595 nm in a microplate reader (Bio-Rad Laboratories, Richmond, Calif.). The sequence RGDS was used as a positive control, and RGES was used as a negative control. […]

KDR/Flk-1 = KDR/Flk-1 receptor; read-out: binding affinity to VEGF (KDR/Flk-1); cited from earlier work
Flt-1 = Flt-1 (Homo sapiens, UniProt P17948); details: Flt-1 receptor; read-out: binding affinity to VEGF (Flt-1); cited from earlier work
Chain of Flt-1 (P17948 27-1338, species assumed): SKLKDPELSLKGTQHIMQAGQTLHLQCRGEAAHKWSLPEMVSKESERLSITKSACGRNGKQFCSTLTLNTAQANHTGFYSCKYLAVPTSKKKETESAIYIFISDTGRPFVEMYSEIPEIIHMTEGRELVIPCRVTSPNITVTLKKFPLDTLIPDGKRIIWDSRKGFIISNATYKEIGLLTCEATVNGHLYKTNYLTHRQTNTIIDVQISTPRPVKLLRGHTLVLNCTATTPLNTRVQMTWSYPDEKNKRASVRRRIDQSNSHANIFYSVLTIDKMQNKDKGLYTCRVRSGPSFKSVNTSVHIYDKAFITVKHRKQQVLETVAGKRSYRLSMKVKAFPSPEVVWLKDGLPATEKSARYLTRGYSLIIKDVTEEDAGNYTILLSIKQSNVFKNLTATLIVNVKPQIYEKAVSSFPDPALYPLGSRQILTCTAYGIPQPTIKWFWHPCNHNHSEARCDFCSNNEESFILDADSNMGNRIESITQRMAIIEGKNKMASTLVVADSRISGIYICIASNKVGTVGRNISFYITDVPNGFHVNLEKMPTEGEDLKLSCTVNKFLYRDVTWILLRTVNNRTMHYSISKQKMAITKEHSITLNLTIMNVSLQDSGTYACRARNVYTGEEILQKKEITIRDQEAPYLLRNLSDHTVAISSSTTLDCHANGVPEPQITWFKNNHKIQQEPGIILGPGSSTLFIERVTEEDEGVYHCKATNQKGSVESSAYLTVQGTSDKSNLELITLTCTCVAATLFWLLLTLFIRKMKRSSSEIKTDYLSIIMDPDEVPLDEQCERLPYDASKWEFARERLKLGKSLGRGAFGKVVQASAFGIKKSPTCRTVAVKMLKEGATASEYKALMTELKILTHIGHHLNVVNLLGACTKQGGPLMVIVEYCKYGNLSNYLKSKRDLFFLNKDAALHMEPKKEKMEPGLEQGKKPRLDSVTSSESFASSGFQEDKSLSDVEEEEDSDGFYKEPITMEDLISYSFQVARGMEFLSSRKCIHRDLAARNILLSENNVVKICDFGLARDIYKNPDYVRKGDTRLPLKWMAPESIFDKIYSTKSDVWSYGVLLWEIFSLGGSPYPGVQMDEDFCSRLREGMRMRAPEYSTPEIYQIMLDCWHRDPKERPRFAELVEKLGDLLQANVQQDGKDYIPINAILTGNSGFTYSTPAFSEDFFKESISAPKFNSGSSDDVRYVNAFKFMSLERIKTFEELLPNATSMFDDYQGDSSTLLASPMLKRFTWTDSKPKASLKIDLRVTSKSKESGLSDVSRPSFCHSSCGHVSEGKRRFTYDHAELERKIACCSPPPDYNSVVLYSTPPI

angiogenesis = details: compared with fumagillin; cited from earlier work

T1 sequence (P06756 31-889 limits assumed): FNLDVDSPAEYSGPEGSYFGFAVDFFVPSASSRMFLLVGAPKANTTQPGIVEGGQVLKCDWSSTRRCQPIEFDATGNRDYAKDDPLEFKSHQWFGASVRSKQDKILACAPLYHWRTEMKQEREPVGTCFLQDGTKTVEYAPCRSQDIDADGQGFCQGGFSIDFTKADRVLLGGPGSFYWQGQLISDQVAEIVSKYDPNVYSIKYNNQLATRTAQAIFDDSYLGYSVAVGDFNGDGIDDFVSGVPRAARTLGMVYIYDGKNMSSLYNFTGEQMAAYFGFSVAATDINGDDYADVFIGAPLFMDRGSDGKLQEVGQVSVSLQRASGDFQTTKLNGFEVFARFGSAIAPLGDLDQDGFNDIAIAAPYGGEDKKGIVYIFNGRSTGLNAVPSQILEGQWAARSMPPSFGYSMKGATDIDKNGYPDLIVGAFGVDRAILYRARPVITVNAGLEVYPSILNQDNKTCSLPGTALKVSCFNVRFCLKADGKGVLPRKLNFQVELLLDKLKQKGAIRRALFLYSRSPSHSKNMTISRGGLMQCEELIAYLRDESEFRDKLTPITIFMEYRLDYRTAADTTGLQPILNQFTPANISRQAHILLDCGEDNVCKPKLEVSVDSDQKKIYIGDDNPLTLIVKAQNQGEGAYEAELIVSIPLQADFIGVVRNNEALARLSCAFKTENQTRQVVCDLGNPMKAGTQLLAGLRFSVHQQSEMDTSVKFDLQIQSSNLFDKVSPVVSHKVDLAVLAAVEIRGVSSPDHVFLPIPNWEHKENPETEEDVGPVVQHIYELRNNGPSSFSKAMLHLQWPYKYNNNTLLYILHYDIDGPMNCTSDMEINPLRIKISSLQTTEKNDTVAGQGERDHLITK
T1 sequence (P06756 891-1048 partner limits assumed): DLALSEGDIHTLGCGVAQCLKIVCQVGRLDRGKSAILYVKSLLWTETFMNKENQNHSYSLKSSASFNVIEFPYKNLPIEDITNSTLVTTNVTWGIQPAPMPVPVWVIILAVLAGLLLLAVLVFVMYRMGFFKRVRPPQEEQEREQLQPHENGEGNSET
T1 sequence (P05106 27-788): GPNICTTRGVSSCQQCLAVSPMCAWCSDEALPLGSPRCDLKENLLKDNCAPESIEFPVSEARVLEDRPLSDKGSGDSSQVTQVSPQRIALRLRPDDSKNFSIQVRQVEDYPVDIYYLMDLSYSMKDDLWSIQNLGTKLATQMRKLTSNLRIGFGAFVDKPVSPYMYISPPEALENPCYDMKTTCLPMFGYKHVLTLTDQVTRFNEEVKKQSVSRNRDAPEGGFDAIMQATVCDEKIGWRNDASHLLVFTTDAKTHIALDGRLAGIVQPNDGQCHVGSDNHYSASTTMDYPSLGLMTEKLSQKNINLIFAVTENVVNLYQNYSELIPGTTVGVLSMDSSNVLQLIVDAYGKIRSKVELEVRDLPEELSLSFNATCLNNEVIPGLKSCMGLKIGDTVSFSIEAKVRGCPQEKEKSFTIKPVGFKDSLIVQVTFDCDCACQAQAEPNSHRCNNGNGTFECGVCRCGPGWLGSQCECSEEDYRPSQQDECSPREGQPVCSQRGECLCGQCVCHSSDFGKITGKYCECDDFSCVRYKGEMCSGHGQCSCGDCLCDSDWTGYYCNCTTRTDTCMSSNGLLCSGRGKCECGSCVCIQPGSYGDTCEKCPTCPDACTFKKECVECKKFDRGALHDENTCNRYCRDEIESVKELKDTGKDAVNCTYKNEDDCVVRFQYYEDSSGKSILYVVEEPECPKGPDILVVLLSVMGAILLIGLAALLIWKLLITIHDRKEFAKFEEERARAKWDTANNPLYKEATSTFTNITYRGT

effect on HUVEC binding to vitronectin / affinity for αvβ3 receptor (αvβ3 receptor; vitronectin coated plate): eliminated the binding
inhibition of binding (αvβ3 receptor; vitronectin): 100%
Molecule: R-G-D-S [RGDS, reference compound]

Molecule: VEGF
Kd (KDR/Flk-1): 0.125 nM
Kd (Flt-1): 0.025 nM

Molecule: CO[C@@H]1[C@H](OC(=O)NC(=O)CCl)CC[C@]2(CO2)[C@H]1[C@@]1(C)O[C@@H]1CC=C(C)C [TNP-470, O-(chloroacetylcarbamoyl)fumagillol]
potency as inhibitor of angiogenesis relative to fumagillin (angiogenesis): 50 times

Molecule: CO[C@@H]1C(=O)CC[C@]2(CO2)[C@@]1(O)[C@@]1(C)O[C@@H]1CC=C(C)C [Ovalicin]
potency as inhibitor of angiogenesis relative to fumagillin (angiogenesis): 50 times
